Experimental data reported in US20070128217A1 (priority 2003, published 2007).

Assays:
[1] = test system: antibodies in sera from SARS patients (sera 1a, 1b, 2, 6, 37, 62, London, SARS-yellow, SARS-green); type: binding, human; parameters: Binding of serum 6 to linear peptides of protein X1 of SARS-CoV Urbani / Binding of serum 37 to linear peptides of protein X1 of SARS-CoV Urbani / Binding of serum 6 to looped/cyclic peptide (PEPSCAN-ELISA) / Binding of serum 37 to looped/cyclic peptide (PEPSCAN-ELISA) / Binding of serum 37 to looped/cyclic peptides of protein X1 of SARS-CoV Urbani / Binding of serum 6 to linear peptides of protein X2 / Binding of serum 37 to linear peptides of protein X2 / Binding of serum 37 to looped/cyclic peptides of protein X2 of SARS-CoV Urbani / Binding of serum 6 to linear peptides of protein M of SARS-CoV Urbani / Binding of serum 37 to linear peptides of protein M of SARS-CoV Urbani / Binding of serum 6 to looped/cyclic peptides of protein M of SARS-CoV Urbani / Binding of serum 37 to looped/cyclic peptides of protein M of SARS-CoV Urbani / Binding of serum 6 to linear peptides of protein X3 of SARS-CoV Urbani / Binding of serum 37 to linear peptides of protein X3 of SARS-CoV Urbani / Binding of serum 37 to looped/cyclic peptides of protein X3 of SARS-CoV Urbani / Binding of serum 6 to linear peptides of protein X4 of SARS-CoV Urbani / Binding of serum 37 to linear peptides of protein X4 of SARS-CoV Urbani / Binding of serum 37 to looped/cyclic peptides of protein X4 of SARS-CoV Urbani / Binding of serum 6 to linear peptides of protein X5 of SARS-CoV Urbani / Binding of serum 37 to linear peptides of protein X5 of SARS-CoV Urbani / Binding of serum 37 to looped/cyclic peptides of protein X5 of SARS-CoV Urbani / Binding of serum 6 to linear peptides of protein N of SARS-CoV Urbani / Binding of serum 37 to linear peptides of protein N of SARS-CoV Urbani / Binding of serum 6 to linear peptide (PEPSCAN-ELISA) / Binding of serum 1a to looped/cyclic peptides of protein N of SARS-CoV Urbani / Binding of serum 1b to looped/cyclic peptides of protein N of SARS-CoV Urbani / Binding of serum 2 to looped/cyclic peptides of protein N of SARS-CoV Urbani / Binding of serum 6 to looped/cyclic peptides of protein N of SARS-CoV Urbani / Binding of serum 37 to looped/cyclic peptides of protein N of SARS-CoV Urbani / Binding of serum 62 to looped/cyclic peptides of protein N of SARS-CoV Urbani / Binding of serum London to looped/cyclic peptides of protein N of SARS-CoV Urbani / Binding of serum SARS-green to looped/cyclic peptides of protein N of SARS-CoV Urbani: unit not given here
[2] = test system: control sera (pooled serum of ten healthy LUMC hospital workers; commercial negative donor pooled serum from the Dutch bloodbank); type: binding, human; parameters: Binding of Control serum LUMC to linear peptides / Binding of Control serum Blood-bank to linear peptides / Binding of Control serum LUMC to looped peptides / Binding of Control Serum Blood-Bank to Looped peptides / Binding of Control serum LUMC to linear peptides of the protein M of SARS-CoV Urbani / Binding of Control serum Blood-bank to linear peptides of the protein M of SARS-CoV Urbani / Binding of Control serum LUMC to looped peptides of the protein M of SARS-CoV Urbani / Binding of Control Serum Blood-Bank to Looped peptides of the protein M of SARS-CoV Urbani: unit not given here
[3] = test system: rabbit serum obtained by immunizing a rabbit with the SARS-CoV strain Frankfurt 1; type: binding; parameters: Binding of a rabbit serum to linear peptides / Binding of a rabbit serum to looped peptides / Rabbit serum linear peptides / Rabbit serum looped peptides / Binding of a rabbit serum to linear peptides of protein N of SARS-CoV Urbani (Rabbit serum linear peptides) / Binding of a rabbit serum to looped/cyclic peptides of protein N of SARS-CoV Urbani (Rabbit serum looped peptides): unit not given here
[4] = test system: recombinant human anti-SARS-CoV antibody 03-018; type: binding; parameters: Binding of antibody 03-018 to linear peptides of the N protein of SARS-CoV Urbani / Binding of antibody 03-018 to looped/cyclic peptides of the N protein of SARS-CoV Urbani: unit not given here

Sequence | Binding of serum 1a to linear peptide (PEPSCAN-ELISA) [1] | Binding of serum 1a to looped/cyclic peptides of protein N of SARS-CoV Urbani [1] | Binding of serum 1b to linear peptide (PEPSCAN-ELISA) [1] | Binding of serum 1b to looped/cyclic peptides of protein N of SARS-CoV Urbani [1] | Binding of serum 2 to linear peptide (PEPSCAN-ELISA) [1] | Binding of serum 2 to looped/cyclic peptides of protein N of SARS-CoV Urbani [1] | Binding of serum 6 to linear peptide (PEPSCAN-ELISA) [1] | Binding of serum 6 to looped/cyclic peptides of protein N of SARS-CoV Urbani [1] | Binding of serum 37 to linear peptide (PEPSCAN-ELISA) [1] | Binding of serum 37 to looped/cyclic peptides of protein N of SARS-CoV Urbani [1] | Binding of serum 62 to linear peptide (PEPSCAN-ELISA) [1] | Binding of serum 62 to looped/cyclic peptides of protein N of SARS-CoV Urbani [1] | Binding of serum London to linear peptide (PEPSCAN-ELISA) [1] | Binding of serum London to looped/cyclic peptides of protein N of SARS-CoV Urbani [1] | Binding of serum SARS-green to looped/cyclic peptides of protein N of SARS-CoV Urbani [1] | Binding of serum SARS-yellow to looped/cyclic peptides of protein N of SARS-CoV Urbani [1] | Binding of a rabbit serum to linear peptides of protein N of SARS-CoV Urbani (Rabbit serum linear peptides) [3] | Binding of a rabbit serum to looped/cyclic peptides of protein N of SARS-CoV Urbani (Rabbit serum looped peptides) [3] | Binding of antibody 03-018 to linear peptides of the N protein of SARS-CoV Urbani [4] | Binding of antibody 03-018 to looped/cyclic peptides of the N protein of SARS-CoV Urbani [4] | further results
SRGGSQASSRSSSRS | 0.3 | 0.4 | 0.1 | 0.3 | 0.3 | 0.3 | 0.4 | 0.3 | 0.6 | 0.5 | 0.7 | 0.3 | 0.4 | 0.3 | 0.2 | 0.2 | 0.2 | 0.5 | 0.1 | 0.2 | Binding of serum SARS-green to linear peptide (PEPSCAN-ELISA) [1]: 0.1; Binding of serum SARS-yellow to linear peptide (PEPSCAN-ELISA) [1]: 0.9; Binding of Control Serum Blood-Bank to Looped peptides [2]: 0.5; Binding of Control serum Blood-bank to linear peptides [2]: 0.7; Binding of Control serum LUMC to linear peptides [2]: 0.6; Binding of Control serum LUMC to looped peptides [2]: 0.6
SRIGMEVTPSGTWLT |  | 0.3 |  | 0.2 |  | 0.4 |  | 0.2 |  | 0.5 |  | 0.5 |  | 0.4 | 0.5 | 0.4 | 0.1 | 0.4 | 0.1 | 0.2 | Binding of serum 1a to linear peptides of protein N of SARS-CoV Urbani [1]: 0.2; Binding of serum 1b to linear peptides of protein N of SARS-CoV Urbani [1]: 0.1; Binding of serum 2 to linear peptides of protein N of SARS-CoV Urbani [1]: 0.2; Binding of serum 6 to linear peptides of protein N of SARS-CoV Urbani [1]: 0.2; Binding of serum 37 to linear peptides of protein N of SARS-CoV Urbani [1]: 0.7; Binding of serum 62 to linear peptides of protein N of SARS-CoV Urbani [1]: 0.6; Binding of serum London to linear peptides of protein N of SARS-CoV Urbani [1]: 0.5; Binding of serum SARS-green to linear peptides of protein N of SARS-CoV Urbani [1]: 0.4; Binding of serum SARS-yellow to linear peptides of protein N of SARS-CoV Urbani [1]: 0.6; Control Serum Blood-Bank Looped peptides [2]: 0.6; Control serum Blood-bank linear peptides [2]: 0.8; Control serum LUMC linear peptides [2]: 0.6; Control serum LUMC looped peptides [2]: 0.6
SRSRGNSRNSTPGSS | 1.0 | 0.5 | 0.6 | 0.4 | 0.3 | 0.3 | 0.2 | 0.1 | 0.7 | 0.3 | 0.7 | 0.3 | 0.5 | 0.3 | 0.0 | 0.0 | 0.3 | 0.7 | 0.1 | 0.2 | Binding of serum SARS-green to linear peptide (PEPSCAN-ELISA) [1]: 0.4; Binding of serum SARS-yellow to linear peptide (PEPSCAN-ELISA) [1]: 0.6; Binding of Control Serum Blood-Bank to Looped peptides [2]: 0.5; Binding of Control serum Blood-bank to linear peptides [2]: 0.7; Binding of Control serum LUMC to linear peptides [2]: 0.5; Binding of Control serum LUMC to looped peptides [2]: 0.4
